Experimental findings from patent US12692254B2, “Benzimidazole inhibitors of PAD enzymes” (BRISTOL-MYERS SQUIBB COMPANY, priority 2018, dated 2026) are described below.

In the experiment the target is human PAD4 (hPAD4) (Homo sapiens, UniProt Q9UM07). Description: RFMS human PAD4 functional assay (rapid-fire mass spectrum). In kind it is biochemical. To be noted: 5 nM hPAD4 enzyme, 250 μM BAEE, 50 μM Calcium; 30 min preincubation, 90 min reaction at 37° C. Summed up:
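PAD4 (10 nM) preincubated 30 min with compound (top final 50 μM), then BAEE substrate added in pH 7.5 HEPES buffer with DTT, 50 μM calcium, TPEN; 90 min at 37° C. After TCA quench, citrulline derivatized with phenyl glyoxal (4 mM final, 30 min, 37° C) and quantified by RapidFire MS against internal standard.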

Chain of human PAD4 (hPAD4) (Q9UM07 whole entry): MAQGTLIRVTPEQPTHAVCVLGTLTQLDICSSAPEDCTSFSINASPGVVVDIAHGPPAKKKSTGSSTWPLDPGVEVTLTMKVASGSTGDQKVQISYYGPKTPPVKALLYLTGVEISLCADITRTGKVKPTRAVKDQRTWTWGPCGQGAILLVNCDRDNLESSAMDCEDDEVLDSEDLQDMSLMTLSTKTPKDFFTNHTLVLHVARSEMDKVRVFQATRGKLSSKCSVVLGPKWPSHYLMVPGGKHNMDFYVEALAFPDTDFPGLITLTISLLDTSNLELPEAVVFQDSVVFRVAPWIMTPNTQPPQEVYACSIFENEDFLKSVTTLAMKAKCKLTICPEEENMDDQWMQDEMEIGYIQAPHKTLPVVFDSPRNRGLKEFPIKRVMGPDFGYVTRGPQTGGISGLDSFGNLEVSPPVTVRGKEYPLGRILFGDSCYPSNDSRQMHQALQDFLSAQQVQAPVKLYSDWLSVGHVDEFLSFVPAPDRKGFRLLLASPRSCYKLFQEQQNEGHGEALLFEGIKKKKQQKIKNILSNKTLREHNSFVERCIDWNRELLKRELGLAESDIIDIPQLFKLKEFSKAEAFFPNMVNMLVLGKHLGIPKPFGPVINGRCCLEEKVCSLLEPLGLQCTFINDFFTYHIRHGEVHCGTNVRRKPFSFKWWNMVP

For the compound `COc1cc(C(=O)N2CC3CCC2[C@@H]3N)cc2nc(-c3cc4ccccc4n3CC3CC3)n(CC3CN(C(=O)c4cscn4)C3)c12` (stereo partly drawn) [Example 453, (7R)-2-{2-[1-(cyclopropylmethyl)-1H-indol-2-yl]-7-methoxy-1-{[1-(1,3-thiazole-4-carbonyl)azetidin-3-yl]methyl}-1H-1,3-benzodiazole-5-carbonyl}-2-azabicyclo[2.2.1]heptan-7-amine], the IC50 amounted to 53 nM.

As for `COc1cc(C(=O)N2CC3CCC2[C@@H]3N)cc2nc(-c3cc4ccccc4n3CC3CC3)n(CC3CN(C(=O)c4ccccc4C(=O)O)C3)c12` (stereo partly drawn) [Example 179, 2-[3-({5-[(1R,4R,7R)-7-amino-2-azabicyclo[2.2.1]heptane-2-carobnyl]-2-[1-(cyclopropylmethyl)-1H-indol-2-yl]-7-methoxy-1H-1,3-benzodiazol-1-yl}methyl)azetidine-1-carbonyl]benzoic acid], the IC50 turned out to be 93 nM.

For the compound `COc1cc(C(=O)N2CC3CCC2[C@@H]3N)cc2nc(-c3cc4ccccc4n3CC3CC3)n(CC3CN(C(=O)c4ccnc(Cl)c4)C3)c12` (stereo partly drawn) [Example 424, (7R)-2-(1-{[1-(2-chloropyridine-4-carbonyl)azetidin-3-yl]methyl}-2-[1-(cyclopropylmethyl)-1H-indol-2-yl]-7-methoxy-1H-1,3-benzodiazole-5-carbonyl)-2-azabicyclo[2.2.1]heptan-7-amine], the IC50 is 25 nM.

As for `COc1cc(C(=O)N2C[C@H]3CC[C@@H]2[C@@H]3N)cc2nc(-c3cc4cccnc4n3CC3CC3)n(CC3CN(C(=O)c4ccc(Cl)nc4)C3)c12` [Example 120, (1R,4R,7R)-2-(1-{[1-(6-chloropyridine-3-carbonyl)azetidin-3-yl]methyl}-2-[1-(cyclopropylmethyl)-1H-pyrrolo[2,3-b]pyridin-2-yl]-7-methoxy-1H-1,3-benzodiazole-5-carbonyl)-2-azabicyclo[2.2.1]heptan-7-amine], the half-maximal inhibitory concentration (IC50) is 73 nM.

Consider `COc1cc(C(=O)N2CC(Cn3c(-c4cc5cccnc5n4CC4CC4)nc4cc(C(=O)N5CC6CCC5[C@@H]6N)cc(OC)c43)C2)ccn1` (stereo partly drawn) [Example 441, (7R)-2-{2-[1-(cyclopropylmethyl)-1H-pyrrolo[2,3-b]pyridin-2-yl]-7-methoxy-1-{[1-(2-methoxypyridine-4-carbonyl)azetidin-3-yl]methyl}-1H-1,3-benzodiazole-5-carbonyl}-2-azabicyclo[2.2.1]heptan-7-amine], for which the IC50 amounted to 38 nM.

Regarding `COc1cc(C(=O)N2CC3CCC2[C@@H]3N)cc2nc(-c3cc4ccccc4n3CC(F)(F)F)n(Cc3cnn(C)c3)c12` (stereo partly drawn) [Example 495, (7R)-2-{7-methoxy-1-[(1-methyl-1H-pyrazol-4-yl)methyl]-2-[1-(2,2,2-trifluoroethyl)-1H-indol-2-yl]-1H-1,3-benzodiazole-5-carbonyl}-2-azabicyclo[2.2.1]heptan-7-amine], the concentration for half-maximal inhibition (IC50) was found to be 88 nM.

Turning to `COc1cc(C(=O)N2C[C@H]3CC[C@@H]2[C@@H]3N)cc2nc(-c3cccn3CC3CC3)n(CC3CN(c4ccnc(C)n4)C3)c12` [Example 314, (1R,4R,7R)-2-{2-[1-(cyclopropylmethyl)-1H-pyrrol-2-yl]-7-methoxy-1-{[1-(2-methylpyrimidin-4-yl)azetidin-3-yl]methyl}-1H-1,3-benzodiazole-5-carbonyl}-2-azabicyclo[2.2.1]heptan-7-amine], the IC50 turned out to be 552 nM.

In the case of `COc1cc(C(=O)N2CC3CCC2[C@@H]3N)cc2nc(-c3cc4ccccc4n3CC3CC3)n(CC3(C)CN(C(=O)c4ccccc4)C3)c12` (stereo partly drawn) [Example 426, (7R)-2-{1-[(1-benzoyl-3-methylazetidin-3-yl)methyl]-2-[1-(cyclopropylmethyl)-1H-indol-2-yl]-7-methoxy-1H-1,3-benzodiazole-5-carobnyl}-2-azabicyclo[2.2.1]heptan-7-amine], the IC50 stood at 24 nM.

As for `COc1nccc(N2CC(Cn3c(-c4cc5cccnc5n4CC4CC4)nc4cc(C(=O)N5C[C@H]6CC[C@@H]5[C@@H]6N)cc(OC)c43)C2)n1` [Example 20, (1R,4R,7R)-2-{2-[1-(cyclopropylmethyl)-1H-pyrrolo[2,3-b]pyridin-2-yl]-7-methoxy-1-{[1-(2-methoxypyrimidin-4-yl)azetidin-3-yl]methyl}-1H-1,3-benzodiazole-5-carbonyl}-2-azabicyclo[2.2.1]heptan-7-amine], the IC50 is 57 nM.

As for `COc1cc(C(=O)N2C[C@H]3CC[C@@H]2[C@@H]3N)cc2nc(-c3cc4ccccc4n3CC3CC3)n(Cc3cn[nH]c3)c12` [Example 247, (1-((1H-pyrazol-4-yl)methyl)-2-(1-(cyclopropylmethyl)-1H-indol-2-yl)-7-methoxy-1H-benzo[d]imidazol-5-yl)((1R,4R,7R)-7-amino-2-azabicyclo[2.2.1]heptan-2-yl)methanone], the IC50 was 27 nM.

For `COc1cc(C(=O)N2C[C@H](N)C[C@@H](F)C2)cc2nc(-c3cc4ccccc4n3CC3CC3)n(CC3CN(c4ccnc(C#N)n4)C3)c12` [Example 4, 4-(3-((5-((3R,5R)-3-amino-5-fluoropiperidine-1-carbonyl)-2-(1-(cyclopropylmethyl)-1H-indol-2-yl)-7-methoxy-1H-benzo[d]imidazol-1-yl)methyl)azetidin-1-yl)pyrimidine-2-carbonitrile], the IC50 amounted to 35 nM.

`COc1cc(C(=O)N2C[C@H](N)C[C@@H](F)C2)cc2nc(-c3cc4ccccc4n3CC3CC3)n(Cc3cccs3)c12` [Example 255, (3R,5R)-1-{2-[1-(cyclopropylmethyl)-1H-indol-2-yl]-7-methoxy-1-[(thiophen-2-yl)methyl]-1H-1,3-benzodiazole-5-carbonyl}-5-fluoropiperidin-3-amine]: the concentration for half-maximal inhibition (IC50) was found to be 37 nM.

For `COc1cc(C(=O)N2CC3CCC2[C@@H]3N)cc2nc(-c3cc4cccnc4n3CC3CC3)n(Cc3cnn(-c4ccccn4)c3)c12` (stereo partly drawn) [Example 400, (7R)-2-{2-[1-(cyclopropylmethyl)-1H-pyrrolo[2,3-b]pyridin-2-yl]-7-methoxy-1-{[1-(pyridin-2-yl)-1H-pyrazol-4-yl]methyl}-1H-1,3-benzodiazole-5-carbonyl)-2-azabicyclo[2.2.1]heptan-7-amine], the IC50 stood at 57 nM.

For `COc1cc(C(=O)N2CC3CCC2[C@@H]3N)cc2nc(-c3cc4ccccc4n3CC3CC3)n(CC3CN(C(=O)c4ccn(C)c(=O)c4)C3)c12` (stereo partly drawn) [Example 433, 4-[3-({5-[(7R)-7-amino-2-azabicyclo[2.2.1]heptane-2-carbonyl]-2-[1-(cyclopropylmethyl)-1H-indol-2-yl]-7-methoxy-1H-1,3-benzodiazol-1-yl}methyl)azetidine-1-carbonyl]-1-methyl-1,2-dihydropyridin-2-one], the IC50 came to 31 nM.

In the case of `CC#CC(=O)N1CC(Cn2c(-c3cc4cccnc4n3CC3CC3)nc3cc(C(=O)N4C[C@H]5CC[C@@H]4[C@@H]5N)cc(OC)c32)C1` [Example 104, 1-[3-({5-[(1R,4R,7R)-7-amino-2-azabicyclo[2.2.1]heptane-2-carbonyl]-2-[1-(cyclopropylmethyl)-1H-pyrrolo[2,3-b]pyridin-2-yl]-7-methoxy-1H-1,3-benzodiazol-1-yl}methyl)azetidin-1-yl]but-2-yn-1-one], the 50% inhibitory concentration (IC50) amounted to 27 nM.

On to `COc1cc(C(=O)N2C[C@H]3CC[C@@H]2[C@@H]3N)cc2nc(-c3cc4cccnc4n3CC3CC3)n(C3CN(c4ccccc4)C3)c12` [Example 81, (1R,4R,7R)-2-{2-[1-(cyclopropylmethyl)-1H-pyrrolo[2,3-b]pyridin-2-yl]-7-methoxy-1-(1-phenylazetidin-3-yl)-1H-1,3-benzodiazole-5-carbonyl}-2-azabicyclo[2.2.1]heptan-7-amine], for which the half-inhibitory concentration (IC50) was found to be 403 nM.

Turning to `COc1cc(C(=O)N2C[C@H]3CC[C@@H]2[C@@H]3N)cc2nc(-c3cccn3CC3CC3)n(CC3CN(c4ccnc(C#N)n4)C3)c12` [Example 311, 4-[3-({5-[(1R,4R,7R)-7-amino-2-azabicyclo[2.2.1]heptane-2-carbonyl]-2-[1-(cyclopropylmethyl)-1H-pyrrol-2-yl]-7-methoxy-1H-1,3-benzodiazol-1-yl}methyl)azetidin-1-yl]pyrimidine-2-carbonitrile], the IC50 is 134 nM.

For the compound `COc1cc(C(=O)N2C[C@H]3CC[C@@H]2[C@@H]3N)cc2nc(-c3cc4ccccc4n3CC3CC3)n(CC3CN(C(=O)c4nn[nH]n4)C3)c12` [Example 173, (1R,4R,7R)-2-{2-[1-(cyclopropylmethyl)-1H-indol-2-yl]-7-methoxy-1-{[1-(2H-1,2,3,4-tetrazole-5-carbonyl)azetidin-3-yl]methyl}-1H-1,3-benzodiazole-5-carbonyl}-2-azabicyclo[2.2.1]heptan-7-amine], the IC50 is 50 nM.

For the compound `COc1cc(C(=O)N2C[C@H]3CC[C@@H]2[C@@H]3N)cc2nc(-c3cc4cccnc4n3CC3CC3)n(CC3CN(C(=O)c4ccnc(C#N)c4)C3)c12` [Example 183, 4-[3-({5-[(1R,4R,7R)-7-amino-2-azabicyclo[2.2.1]heptane-2-carbonyl]-2-[1-(cyclopropylmethyl)-1H-pyrrolo[2,3-b]pyridin-2-yl]-7-methoxy-1H-1,3-benzodiazol-1-yl}methyl)azetidine-1-carbonyl]pyridine-2-carbonitrile], the IC50 came to 276 nM.

As to `COc1cc(C(=O)N2C[C@H]3CC[C@@H]2[C@@H]3N)cc2nc(-c3cc4ccccc4n3CC3CC3)n(CC3CN(c4ccnc(C#N)n4)C3)c12` [Example 1, 4-(3-((5-((1R,4R,7R)-7-amino-2-azabicyclo[2.2.1]heptane-2-carbonyl)-2-(1-(cyclopropylmethyl)-1H-indol-2-yl)-7-methoxy-1H-benzo[d]imidazol-1-yl)methyl)azetidin-1-yl)pyrimidine-2-carbonitrile], the IC50 stood at 14 nM.

With `COc1cc(C(=O)N2C[C@H]3CC[C@@H]2[C@@H]3N)cc2nc(-c3cc4ccccc4n3CC3CC3)n(CC3CN(C(=O)c4cccn4C)C3)c12` [Example 148, (1R,4R,7R)-2-{2-[1-(cyclopropylmethyl)-1H-indol-2-yl]-7-methoxy-1-{[1-(1-methyl-1H-pyrrole-2-carbonyl)azetidin-3-yl]methyl}-1H-1,3-benzodiazole-5-carbonyl}-2-azabicyclo[2.2.1]heptan-7-amine], the IC50 is 19 nM.

Usually IC50 stands for the concentration that inhibits the measured activity by half.
